Test results: patent EP4458977A1, “SELF-ASSEMBLING PEPTIDE AMPHIPHILES AS RETROVIRAL TRANSDUCTION ENHANCERS” (Max-Planck-Gesellschaft zur Förderung der Wissenschaften …, priority 2023, dated 2024)
“Also recorded” adds a separate entry of the source. Where a SMILES comes first, the peptide text is derived from it. The star is where a group is joined. Palmitoyl = CCCCCCCCCCCCCCCC(=O)*

Columns and labels:
[1] = TEM of peptide assemblies (fibril formation / assembly); format: physicochemical; conditions: for TEM morphology (in words): 1 mg/mL in PBS; for Assembly without hydrophob residue: corresponding peptide without hydrophobic moiety; for Assembly: peptide amphiphile
Description: The peptides were predissolved in DMSO to a concentration of 10 mg/mL. The fibril formation was induced by further diluting the solution to a final incubation concentration of 650 µM or 1 mg/mL in PBS as indicated in the text and incubated for 1 d (1 day) at rt (room temperature, 20 °C - 25 °C). Other concentrations as described herein were achieved by further dilution of preformed fibrils.
(§1) Transmission electron microscopy (TEM) measurements, Thioflavin (ThT), zeta-potential measurements for fibril characterization were prepared and conducted according to prior art procedures. […] Fibrils were defined as distinct, if no visible structures could be identified in fluorescence and brightfield microscopy.

[2] = ATR-FT-IR determination of β-sheet content; format: physicochemical; conditions: 1 mg/mL in PBS lyophilized; integral at 1630 cm^-1 relative to 1650-1700 cm^-1
Description: ATR-FT-IR: ATR-IR spectra acquisition and the calculation of β-sheet content were conducted according prior art procedures. Briefly, FT-IR spectra of solid samples were recorded after lyophilization of fibril solutions using a Bruker Tensor II spectrometer equipped with a diamond crystal as ATR element with a spectral resolution of 2 cm^-1, each spectrum was an average of 64 scans. The data was processed with Origin software. β-sheet amount was determined by calculating the integral of the peak at 1630 cm-1 (β-sheet) relative to the integral between 1650-1700 cm-1 (native structure) from the 2nd derivative of the FT-IR spectra.

HIV-1 = conditions: for enhancement of HIV-1 infection / transduction (in words): 6.5 µM, 1.3 µM, 0.26 µM; for Infectivity enhancing N fold at 1.3 µM: relative to virus only;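 for all read-outs here: TZM-bl reporter cells exposed to HIV-1 with peptide fibrils, infection read out as β-galactosidase luminescence, compared with virus alone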
Description: HIV-1 Infection Assay with TZM-bl cells: The effect of peptide fibrils on HIV-1 infection was studied via a luminescence assay for β-galactosidase, which was reported by TZM-bl cells upon infection. The HIV-1 infection assay was conducted in three technical replicates and repeated in three independent experiments unless stated otherwise.

[3] = Fluorescence microscopy of ThT-stained fibrils (µm-sized aggregates); format: physicochemical; conditions: 1 mg/mL stained with 50 µM ThT
Description: as §1
Fluorescence microscopy: 1 µL Fibrils (1 mg mL^-1) were stained with 9 µL, 50 µM ThT. 10 µL of the stained fibrils (0.1 mg mL^-1) were placed on a microscopy glass. Fluorescence microscopy measurements were performed on a Leica DMi8 microscope with 10x air objective and equipped with a Leica MC170 HD camera with a filter setting λem = 527/30 nm upon excitation at λex = 480/40 nm) and processed with the Leica LASX software.

HeLa cells = experiment: Confocal laser scanning microscopy and degradation study with PA library and HeLa cells; format: cell-based; conditions: for degradability (in words) / Degradability / % (rel. to initial particles > 10 µm^2): HeLa cells; for degradability (in words): 3 days; for Degradability / % (rel. to initial particles > 10 µm^2): 3 d relative to 30 min; for aggregate number increases / aggregate number decreases / degraded in presence of HeLa cells within 3 days: d3 relative to d0; for association with cellular membranes: 2 µg added to 20.000 HeLa cells, 30 min
Description: In general, the procedure for determine whether a PA is degraded or not, is conducted by confocal laser scanning microscopy of Proteostat stained PAs which are added to Hela cells (2 µg peptide added to 20.000 cells). Microscopy is conducted at day 0 (d0, after 30 min of incubation) and at day 3 (d3, after 72 h of incubation). The number of aggregates >10 µm^2 is counted via 3D object counter in imaged in an area of 1008 µm × 1008 µm.
A PA is considered to be degradable if the number and the size of aggregates are reduced after 3 days. The efficiency is determined by the percentual degradation (aggregate number at d3 / aggregate number at d0). For the number of aggregation three technical replicates were evaluated for each sample. A large deviation represents a nonhomogeneous spatial distribution of aggregates.
Confocal laser scanning microscopy and degradation study with PA library and HeLa cells: Confocal laser scanning microscopy studies were performed for the visualization of the cell-PA interaction. HeLa cells were seeded one day prior to conducting the assay (20,000/well) in an 8-well IBIDI slide. […] The nucleus of the HeLa cells was stained with Hoechst 33342 (NucBlue™, Thermo Fisher Scientific). The peptide solution mixture was transferred to the HeLa cells and incubated for 30 min at 37°C before washing three times with PBS. […] For the evaluation of aggregate degradation, the samples were further incubated at 37°C for 3 d and analyzed without any additional washing step. […] The number of aggregates were determined by counting aggregates larger than the threshold 10 µm^2 in an area of 1008 × 1008 µm and repeated in three technical triplicates.

SMILES	TEM morphology (in words) [1]	Assembly without hydrophob residue [1]	Assembly [1]	β-sheet amount [2] [%]	enhances infectivity at 1.3 µM concentration, times more efficient compared to virus only infection (HIV-1) [times]	enhancement of HIV-1 infection / transduction (in words) (HIV-1)	Infectivity enhancing N fold at 1.3 µM (HIV-1) [N fold]	fluorescent, µm-sized aggregates (ThT staining) [3]	degradability (in words) (HeLa cells)	Degradability / % (rel. to initial particles > 10 µm^2) (HeLa cells) [%]	aggregate number increases (HeLa cells) [%]	infectivity enhancement at 1.3 µM concentration compared to virus only infection (in words) (HIV-1)	association with cellular membranes (HeLa cells)	aggregate number decreases / degraded in presence of HeLa cells within 3 days (HeLa cells) [%]
CCCCCCCCCCCCCCCC(=O)N[C@@H](C)C(=O)N[C@@H](CCC(N)=O)C(=O)N[C@@H](C)C(=O)N[C@@H](CCCCN)C(=O)N[C@@H](C)C(=O)N[C@@H](CCCCN)C(N)=O [Pat16, C16-AQAKAK-NH2] (Palmitoyl-AQAKAK-NH2)	fibrillar morphologies	No	Yes	50	4	do not efficiently enhance infectivity	4±1	fluorescent, µm-sized aggregates	cannot be degraded; also recorded: non-degradable PA	-83	83			
CCCCCCCCCCCCCCCC(=O)N[C@@H](Cc1c[nH]c2ccccc12)C(=O)N[C@@H](CCC(=O)O)C(=O)N[C@@H](C)C(=O)N[C@@H](CC(C)C)C(=O)N[C@@H](CCCCN)C(=O)N[C@@H](CCCCN)C(N)=O [Pat17, C16-WEALKK-NH2] (Palmitoyl-WEALKK-NH2)	not forming fibrils; also recorded: amorphous aggregate morphology	No	No	38		no infectivity enhancement can be observed	1±0	fluorescent, µm-sized aggregates				does not enhance infectivity	no association with cellular membranes	
CCCCCCCCCCCCCCCC(=O)N[C@@H](C)C(=O)N[C@H](C(=O)N[C@@H](C)C(=O)N[C@@H](CCCCN)C(=O)N[C@@H](CCCCN)C(=O)N[C@@H](CCCCN)C(N)=O)C(C)C [Pat21, C16-AVAKKK-NH2] (Palmitoyl-AVAKKK-NH2)	fibrillar morphologies	No	Yes	45	2	no infectivity enhancement can be observed	2±0	fluorescent, µm-sized aggregates	can be degraded; also recorded: not efficiently degradable; also recorded: degradable PA	68			association with cellular membranes	84
CCCCCCCCCCCCCCCC(=O)N[C@H](C(=O)N[C@H](C(=O)N[C@@H](C)C(=O)N[C@@H](C)C(=O)N[C@@H](Cc1c[nH]cn1)C(=O)N[C@@H](Cc1c[nH]cn1)C(=O)N[C@@H](Cc1c[nH]cn1)C(N)=O)C(C)C)C(C)C [Pat24, C16-VVAAHHH-NH2] (Palmitoyl-VVAAHHH-NH2)	fibrillar morphologies	No	Yes	70		do not efficiently enhance infectivity	2±0	fluorescent, µm-sized aggregates	cannot efficiently be degraded; also recorded: not efficiently degradable; also recorded: non-degradable PA	26		does not enhance infectivity	association with cellular membranes	26
CCCCCCCCCCCCCCCC(=O)N[C@@H](CCCCN)C(=O)NCC(=O)N[C@H](C(=O)N1CCC[C@H]1C(=O)NCC(=O)N[C@H](C(=O)NCC(=O)N[C@@H](CCCCN)C(N)=O)C(C)C)C(C)C [Pat25] (Palmitoyl-KGVPGVGK-NH2)	not forming fibrils; also recorded: no fibrillar morphologies	Yes	No	0		no infectivity enhancement can be observed	1±0	fluorescent, µm-sized aggregates				do not enhance infectivity	no association with cellular membranes	
CCCCCCCCCCCCCCCC(=O)N[C@@H](CCCCN)C(=O)N[C@@H](Cc1ccc(O)cc1)C(=O)N[C@H](C(=O)N[C@@H](Cc1c[nH]cn1)C(=O)N[C@@H](CCC(N)=O)C(=O)N[C@@H](CC(N)=O)C(=O)N[C@@H](Cc1ccc(O)cc1)C(=O)N[C@H](C(=O)N[C@@H](CCCCN)C(=O)N[C@@H](C)C(=O)N[C@@H](CC(C)C)C(=O)N[C@@H](C)C(=O)NCC(=O)N[C@@H](CCCCN)C(=O)N[C@@H](CC(C)C)C(=O)N[C@H](C(N)=O)C(C)C)[C@@H](C)O)[C@@H](C)CC [Pat26] (Palmitoyl-KYIHQNYTKALAGKLV-NH2)	fibrillar morphologies	No	Yes	51	5		5±2	fluorescent, µm-sized aggregates	cannot be degraded; also recorded: not efficiently degradable; also recorded: non-degradable PA	-110	110	does not enhance infectivity	association with cellular membranes	
CCCCCCCCCCCCCCCC(=O)N[C@@H](CC(N)=O)C(=O)N[C@@H](Cc1ccccc1)C(=O)N[C@@H](Cc1ccc(O)cc1)C(=O)N[C@@H](CC(C)C)C(=O)N[C@@H](CCC(N)=O)C(=O)N[C@H](C(=O)N[C@@H](CC(N)=O)C(=O)N[C@@H](CCCCN)C(=O)N[C@H](C(=O)N[C@@H](CC(N)=O)C(=O)N[C@@H](CCCCN)C(N)=O)[C@@H](C)CC)C(C)C [Pat27] (Palmitoyl-NFYLQVNKINK-NH2)	fibrillar morphologies	Yes	Yes	60	5		5±1	fluorescent, µm-sized aggregates	cannot be degraded; also recorded: not efficiently degradable; also recorded: non-degradable PA	-123	123		association with cellular membranes	
CCCCCCCCCCCCCCCC(=O)NCC(=O)NCC(=O)NCC(=O)N[C@@H](CO)C(=O)N[C@@H](CO)C(=O)N[C@@H](CCCCN)C(=O)N[C@@H](CCCCN)C(=O)N[C@@H](CCCCN)C(N)=O [Pat28] (Palmitoyl-GGGSSKKK-NH2)	fibrillar morphologies	No	Yes	26			2±1	no fluorescent, µm-sized aggregates					no association with cellular membranes	
